Assay results: patent US20260306476A1, “ANTIBACTERIAL COMPOUND PBT2” (priority 2022, published 2026)
Converted amounts (≈) assume the structure as drawn. “Also recorded” adds a separate entry of the source.

Legend:
[1] = test system: Neisseria meningitidis PMC2 (Z/29E); assay: MIC of PBT2 (broth and agar)
[2] = test system: primary human cervical epithelial (Pex) cells; assay: PBT2-induced Pex cell cytotoxicity; format: cell-based; conditions: PBT2 0.016 to 4.695 mg/L; 24 h
Method: To assess the ability of PBT2 to cure an established gonococcal infection in a human ex vivo system, primary human cervical epithelial (Pex) cells were challenged with Neisseria gonorrhoeae strain WHO Z for 90 min and then treated with 0.1% DMSO (vehicle control), PBT2 (0.016 mg/L to 4.695 mg/L), or ceftriaxone (0.5 mg/L, positive control) for 24 h. Viable gonococci were then enumerated. […] PBT2-induced Pex cell cytotoxicity was not observed during the assay.

[3] = human; 250 mg/day for up to 72 hours; NCT02249728; cited from earlier work
[4] = test system: non-typeable Haemophilus influenzae (NTHi) R2866; assay: MIC of PBT2 alone (broth); format: cell-based
Method: (§1) The MIC of PBT2 against five non-typeable Haemophilus influenzae (NTHi) strains was determined (CLSI. 2022. Performance Standards for Antimicrobial Susceptibility Testing, 32nd Edition. Clinical and Laboratory Standards Institute).

[5] = test system: non-typeable Haemophilus influenzae (NTHi) ATCC49766; assay: MIC of PBT2 alone (broth); format: cell-based
Method: as §1

[6] = test system: non-typeable Haemophilus influenzae (NTHi) 2019; assay: MIC of PBT2 alone (broth); format: cell-based
Method: as §1

[7] = test system: non-typeable Haemophilus influenzae (NTHi) 86-028NP; assay: MIC of PBT2 alone (broth); format: cell-based
Method: as §1

[8] = test system: non-typeable Haemophilus influenzae (NTHi) 723; assay: MIC of PBT2 alone (broth); format: cell-based
Method: as §1

Neisseria gonorrhoeae [9] = assay: Antibiotic resistance development test over 30 days; format: cell-based; conditions: 30 days of daily subculture; sub-MIC PBT2 (0.156 mg/L)
Method: FIG. 2: Antibiotic resistance development assay of PBT2.
Resistance development was tested over a 30 day period with PBT2 and using Kanamycin as a control.

[10] = test system: Neisseria meningitidis PMC1 (X); assay: MIC of PBT2 (broth and agar)
[11] = Plasma drug level of PBT2 in clinical trial (NCT02249728); format: in vivo, human; conditions: 250 mg/day; MDR Neisseria gonorrhoeae
[12] = test system: Neisseria meningitidis MC58 (B); assay: MIC of PBT2 (broth and agar)
Campylobacter jejuni = assay: Sensitivity across Campylobacter jejuni strains; format: cell-based; conditions: all strains tested
Method: The MIC of PBT2 against three Campylobacter jejuni strains was determined. All strains tested were sensitive to PBT2.

[13] = test system: Neisseria meningitidis PMC19 (W); assay: MIC of PBT2 (broth and agar)
[14] = test system: Neisseria meningitidis PMC10 (Y); assay: MIC of PBT2 (broth and agar)
Neisseria gonorrhoeae [15] = assay: MIC / susceptibility across Neisseria gonorrhoeae strains; format: cell-based; conditions: for MIC: Neisseria gonorrhoeae
Source text: 13 multidrug resistant WHO strains of Neisseria gonorrhoeae were selected to cover antimicrobial resistance phenotypes to all the antibiotics currently used. MS11 is a laboratory strain and ATCC49226 is a CLSI standard MIC control strain (CLSI. 2022. Performance Standards for Antimicrobial Susceptibility Testing, 32nd Edition. Clinical and Laboratory Standards Institute which is hereby incorporated by reference in its entirety). The MICs (minimum inhibitory concentration) of PBT2 alone in the absence of zinc or a further antimicrobial agent against these Neisseria gonorrhoea strains are summarised in Table 1.

Question: For `CN(C)Cc1ccc2c(Cl)cc(Cl)c(O)c2n1` [PBT2, 5,7-dichloro-2-[(dimethylamino)methyl]quinolin-8-ol], which MIC ([1]; agar) is on record?
Answer: 0.039 µg/mL

Question: And the MIC ([1]; broth)?
Answer: 0.156 µg/mL

Question: And the “PBT2-induced Pex cell cytotoxicity” value [2]?
Answer: not observed

Question: What about the “plasma drug level (AUC)” value [3] of the same compound?
Answer: 1,660 ng*h/ml

Question: What about the MIC [4] of the same compound?
Answer: 2.5 µg/mL

Question: What about the MIC [5] of the same compound?
Answer: 0.312 µg/mL

Question: What about the MIC [6] of the same compound?
Answer: 2.5 µg/mL

Question: What about the MIC [7] of the same compound?
Answer: 2.5 µg/mL

Question: What about the MIC [8] of the same compound?
Answer: 1.25 µg/mL

Question: What about the antibiotic resistance development (Neisseria gonorrhoeae [9]) of the same compound?
Answer: No antibiotic resistance was observed; also recorded: no visible development of resistance

Question: And the MIC [10]?
Answer: 0.039 µg/mL

Question: And the “plasma AUC relative to PBT2 MIC (313 ng/ml)” value [11]?
Answer: 5 fold

Question: And the MIC ([12]; agar)?
Answer: 0.039 µg/mL

Question: What about the MIC ([12]; broth) of the same compound?
Answer: 0.156 µg/mL

Question: And the sensitivity (Campylobacter jejuni)?
Answer: sensitive

Question: What about the MIC ([13]; agar) of the same compound?
Answer: 0.078 µg/mL

Question: And the MIC ([13]; broth)?
Answer: 0.156 µg/mL

Question: And the MIC ([14]; agar)?
Answer: 0.156 µg/mL

Question: What about the MIC ([14]; broth) of the same compound?
Answer: 0.625 µg/mL

Question: What about the MIC (Neisseria gonorrhoeae [15]; MDR Neisseria gonorrhoeae) of the same compound?
Answer: 0.313 µg/mL (≈ 1.15 µM)

Question: And the MIC (Neisseria gonorrhoeae [15]; all strains tested, agar, PBT2 alone)?
Answer: 0.312 to 0.625 µg/mL (≈ 1.15 to 2.31 µM)

Question: What about the MIC (Neisseria gonorrhoeae [15]; all strains tested, broth, PBT2 alone) of the same compound?
Answer: 0.156 to 0.312 µg/mL (≈ 0.575 to 1.15 µM)

Question: And the susceptibility (Neisseria gonorrhoeae [15]; all strains tested, PBT2 alone)?
Answer: highly susceptible
